{"source": "paper PMC6789111", "about": "“Crossing the blood-brain-barrier with nanoligand drug carriers self-assembled from a phage display peptide” (Nature Communications, 2019)", "key": {"hCMEC/D3 cells [1]": {"tested_on": "hCMEC/D3 cells", "assay": "Competition studies of NLC uptake", "format": "cell-based, human", "method": "The amyloid β1–42 oligomers were prepared using a previous method. BSA was used as control protein competitor. The fluorescence microscopy and FACS were employed to observe and quantify FAM-CGY self-assembly uptake, respectively."}, "TNF-α": {"tested_on": "TNF-α", "settings": "Ave.", "method": "Tissues were sectioned at a […] thickness.\nBlood samples were collected for determination of red blood cell count, white blood cell count, haemoglobin, haematocrit, mean corpuscular volume, mean corpuscular haemoglobin, mean corpuscular haemoglobin concentration and platelet count (XFA6030, Perlong Medical Inc., China). Hippocampus was dissected out, rinsed in ice-cold PBS thoroughly, weighted and immediately frozen in liquid nitrogen. Tissues were cut into small pieces and homogenized in 1 mL ice-cold PBS with a glass homogeniser and sonicated with an ultrasonic cell disrupter to break the cell membranes. Homogenates were centrifuges for 5 min at 5,000 × g and supernatants were assayed immediately for quantitative determination of TNF-α, IL-6, IL-1β, Iba-1 and GFAP by corresponding ELISA kits, respectively in accordance with manufacturer’s instructions."}, "IL-6": {"tested_on": "IL-6", "assay": "ELISA of IL-6 in hippocampus", "format": "in vivo, ICR mice", "settings": "Ave.", "experimental": "After 4, 24 and 72 h post injection, mice were sacrificed and perfused with 10 mL 0.9% (w/v) saline at a rate of 2 mL min^−1."}, "IL-1β": {"tested_on": "IL-1β", "assay": "ELISA of IL-1β in hippocampus", "format": "in vivo, ICR mice", "settings": "Ave."}, "Iba-1": {"tested_on": "Iba-1", "assay": "ELISA of Iba-1 in hippocampus", "format": "in vivo, ICR mice", "settings": "Ave."}, "GFAP": {"tested_on": "GFAP", "assay": "ELISA of GFAP in hippocampus", "format": "in vivo, ICR mice", "settings": "Ave."}, "[2]": {"assay": "Blood count after intravenous injection", "format": "in vivo, ICR mice", "settings": "mouse, in vivo, iv", "source_text": "Supplementary Table 2. Blood count following intravenous injection of FAM-CGY NLCs in free form and complexed with siRNA\nSamples WBC RBC HGB HCT MCV MCH MCHC PLT\nWBC: white blood cell; RBC: red blood cell count; HGB: haemoglobin; HCT: haematocrit; MCV: mean corpuscular volume; MCH: mean corpuscular haemoglobin; MCHC: mean corpuscular\nsignificance (*p < 0.05). The results are mean ± s.d. (n = 3 animals per group). The experiment was repeated twice with identical results. The siRNA represent BACE-1-specific siRNA. The\nfinal concentration of the peptide conjugate was 10 µM and that of siRNA was 48 nM, based on blood volume calculation equivalent to 6% of the body weight. LPS = lipopolysaccharide."}, "hCMEC/D3 cell monolayer": {"tested_on": "hCMEC/D3 cell monolayer", "assay": "Transwell in vitro BBB model", "format": "cell-based, human", "method": "For the construction of the in vitro BBB model, hCMEC/D3 cells were seeded on rat tail collagen-coated polycarbonate membranes (Transwell, No. 3401 Costar; Corning, Wiesbaden, Germany; 0.4 μm pore size; 1.13 cm^2 growth area) with a density of 100,000 cells cm^−2. Every three days the cell medium was change. In general after 7 days growth, the cells reached confluence. The transendothelial electrical resistance (TEER) and cell layer capacitance (CCL), which reflects the membrane surface area of the hCMEC/D3 cell monolayer, were measured using CellZscope system (NanoAnalytics, Münster, Germany). Cells with CCL values in the range of 0.5–5.0 μF cm^−2 indicate cell confluence and validate TEER values were selected for the transfer experiments. NLCs at different concentrations were introduced in to the apical side of the BBB model. The TEER values were measured during the incubation. After 24 h of incubation, the media from basal and apical sides were sampled and analysed for fluorescent measurement. CD31 and paracellular adherens (β-catenin) junctions were assessed by immunofluorescence labeling directly on the cell monolayer attached to the transwell membrane. Briefly, cells were fixed by 4% v/v paraformaldehyde for 10 min, rinsed and then permeabilised with 0.5% (v/v) Triton X-100 for 10 min. After rinsing samples were blocked by 5% w/v BSA for 1 h, followed by incubation with primary antibodies (rabbit polyclonal to CD31, rabbit polyclonal to anti-β-catenin) in 1% w/v BSA overnight at 4 °C. […] After rinsing, the red fluorescence from tight junction proteins was observed by a Leica AF6000LX microscope equipped with a 63 × objective using ×1.6 magnifications. […]\nformation of multiple cell-layers was sometime observed from day 7 onward. […] TEER values and its corresponding capacitance were recorded after the introduction of peptide for 24 h. (d) & (e) Staining and quantification of endothelial cells (CD31) and adheren β-catenin markers confirming the presence of a functional tight junction before and after NLC ( 5 µM) challenge. […]"}, "hCMEC/D3 cells [3]": {"tested_on": "hCMEC/D3 cells", "experimental": "LDH release was followed at 24 h post transfection procedures. The measurement was performed using CytoTox96® Non-Radioactive Cytotoxicity Assay kit (Promega, WI, USA)[43]. The maximum amount of LDH in the cells, induced by the addition of a lysis solution, was measured and used as a 100% LDH release and compared with peptidoplex and siPORT-siRNA complex-induced LDH release as well as to spontaneous cellular LDH release (untreated cells)."}, "[4]": {"settings": "mouse, in vivo, iv", "experimental": "After 4, 24 and 72 h post injection, mice were sacrificed and perfused with 10 mL 0.9% (w/v) saline at a rate of 2 mL min^−1. Organs (brain, heart, liver, lung, kidney, spleen) were collected for haematoxylin-eosin (H&E) analysis. Tissues were sectioned at a 5 mm thickness. H&E staining was done by submersion in Harris hematoxylin followed by differentiation through 37% HCl and Li2CO3 solution. An Olympus optical microscope (Tokyo, Japan) was used for assessing slides."}, "[5]": {"settings": "mouse, in vivo, iv", "remark": "listed apart in the source", "experimental": "In some experiments, animals were transcardially perfused with 10 mL 0.9% (w/v) saline at a rate of 2 mL min^−1 through the left ventricle to remove the blood from the brain, followed by 20 mL 4% (v/v) paraformaldehyde in phosphate buffered saline (PBS, pH = 7.4). The brain was removed and post-fixed overnight in 4% (v/v) paraformaldehyde followed by dehydration with 30% (w/v) sucrose solution in PBS at 4 °C. Frozen sections were cut on a cryostat (Thermo fisher, USA). […] To visualise neurons, microglial and astrocytes, sections were first stained with antibodies against Tuj1 (1:500), Iba1 (1:300) and GFAP (1:300), respectively, and then with donkey anti-mouse Alexa Fluor®555 (1:1000 dilution) secondary antibody. DAPI staining was performed to visualise cell nuclei."}}, "note": "Like-named read-outs stand apart in the source and are kept apart here. Peptide text beside a SMILES is read from it. * marks the point of attachment. 5FAM = O=C1OC2(c3ccc(O)cc3Oc3cc(O)ccc32)c2ccc(C(=O)*)cc21", "data": [{"smiles": "CC[C@H](C)[C@H](NC(=O)[C@H](CC(N)=O)NC(=O)[C@H](Cc1c[nH]cn1)NC(=O)[C@@H](NC(=O)[C@@H]1CCCN1C(=O)[C@H](CCCNC(=N)N)NC(=O)[C@H](Cc1ccc(O)cc1)NC(=O)CNC(=O)[C@H](CS)NC(=O)c1ccc2c(c1)C(=O)OC21c2ccc(O)cc2Oc2cc(O)ccc21)C(C)C)C(=O)N[C@@H](CCCNC(=N)N)C(=O)NCC(=O)N[C@@H](Cc1c[nH]cn1)C(=O)N[C@@H](Cc1c[nH]c2ccccc12)C(=O)N[C@@H](C)C(=O)N1CCC[C@H]1C(=O)NCC(=O)O", "note": "[FAM-CGY] (5FAM-CGYRPVHNIRGHWAPG-OH)", "values": [{"measurement": "inhibition of NLC uptake by transferrin", "setting": "hCMEC/D3 cells [1]; 500 nM partially iron saturated human transferrin, 37 °C", "result": "~ 50%"}, {"measurement": "FAM-CGY uptake (% of control)", "setting": "hCMEC/D3 cells [1]; 5 µM NLC + 62.5 nM Tf, Ave. All", "result": "78.89 % of control"}, {"measurement": "FAM-CGY uptake (% of control)", "setting": "hCMEC/D3 cells [1]; 5 µM NLC + 62.5 nM Tf, Set 2", "result": "73.26 % of control"}, {"measurement": "FAM-CGY uptake (% of control)", "setting": "hCMEC/D3 cells [1]; 5 µM NLC + 62.5 nM Tf, Set 3", "result": "81.15 % of control"}, {"measurement": "FAM-CGY uptake (% of control)", "setting": "hCMEC/D3 cells [1]; 5 µM NLC + 62.5 nM transferrin (Tf), 16 h, FACS, Set 1", "result": "82.27 % of control"}, {"measurement": "FAM-CGY uptake (% of control)", "setting": "hCMEC/D3 cells [1]; 5 µM NLC + 250 nM Tf+20 μg RAGE P, Ave. All", "result": "33.57 % of control"}, {"measurement": "FAM-CGY uptake (% of control)", "setting": "hCMEC/D3 cells [1]; 5 µM NLC + 250 nM Tf, Ave. All", "result": "53.82 % of control"}, {"measurement": "FAM-CGY uptake (% of control)", "setting": "hCMEC/D3 cells [1]; 5 µM NLC + 500 nM Tf, Ave. All", "result": "48.73 % of control"}, {"measurement": "FAM-CGY uptake (% of control)", "setting": "hCMEC/D3 cells [1]; 5 µM NLC + 5 μg RAGE P, Ave. All", "result": "90.44 % of control"}, {"measurement": "FAM-CGY uptake (% of control)", "setting": "hCMEC/D3 cells [1]; 5 µM NLC + 5 μg RAGE P, Set 2", "result": "86.26 % of control"}, {"measurement": "FAM-CGY uptake (% of control)", "setting": "hCMEC/D3 cells [1]; 5 µM NLC + 5 μg RAGE P, Set 3", "result": "92.62 % of control"}, {"measurement": "FAM-CGY uptake (% of control)", "setting": "hCMEC/D3 cells [1]; 5 µM NLC + 5 μg RAGE peptide (RAGE P), Set 1", "result": "92.46 % of control"}, {"measurement": "FAM-CGY uptake (% of control)", "setting": "hCMEC/D3 cells [1]; 5 µM NLC + 10 μg RAGE P, Ave. All", "result": "82.03 % of control"}, {"measurement": "FAM-CGY uptake (% of control)", "setting": "hCMEC/D3 cells [1]; 5 µM NLC + 20 μg RAGE P, Ave. All", "result": "58.83 % of control"}, {"measurement": "FAM-CGY uptake (% of control)", "setting": "hCMEC/D3 cells [1]; 5 µM NLC + 40 μg BSA (irrelevant protein), Set 1", "result": "108.69 % of control"}, {"measurement": "FAM-CGY uptake (% of control)", "setting": "hCMEC/D3 cells [1]; 5 µM NLC + 40 μg BSA, Ave. All", "result": "103.56 % of control"}, {"measurement": "FAM-CGY uptake (% of control)", "setting": "hCMEC/D3 cells [1]; 5 µM NLC + 40 μg BSA, Set 2", "result": "96.26 % of control"}, {"measurement": "FAM-CGY uptake (% of control)", "setting": "hCMEC/D3 cells [1]; 5 µM NLC + 40 μg BSA, Set 3", "result": "105.73 % of control"}, {"measurement": "block of NLC uptake by transferrin plus RAGE peptide ligand", "setting": "hCMEC/D3 cells [1]; simultaneous presence of both", "result": "~ 70%"}, {"measurement": "TNF-α in hippocampus (Figure 6e)", "setting": "TNF-α; 4 h after i.v.", "result": 13.40}, {"measurement": "TNF-α in hippocampus (Figure 6e)", "setting": "TNF-α; 24 h after i.v. (LPS 24 h)", "result": 12.87}, {"measurement": "TNF-α in hippocampus (Figure 6e)", "setting": "TNF-α; 72 h after i.v.", "result": 12.94}, {"measurement": "IL-6 in hippocampus (Figure 6f)", "setting": "IL-6; 4 h after i.v.", "result": 6.03}, {"measurement": "IL-6 in hippocampus (Figure 6f)", "setting": "IL-6; 72 h after i.v.", "result": 6.23}, {"measurement": "IL-1β in hippocampus (Figure 6g)", "setting": "IL-1β; 4 h after i.v.", "result": 21.06}, {"measurement": "IL-1β in hippocampus (Figure 6g)", "setting": "IL-1β; 24 h after i.v. (LPS 24 h)", "result": 23.58}, {"measurement": "IL-1β in hippocampus (Figure 6g)", "setting": "IL-1β; 72 h after i.v.", "result": 22.65}, {"measurement": "Iba-1 in hippocampus (Figure 6h)", "setting": "Iba-1; 4 h after i.v.", "result": 0.93}, {"measurement": "Iba-1 in hippocampus (Figure 6h)", "setting": "Iba-1; 24 h after i.v. (LPS 24 h)", "result": 1.02}, {"measurement": "Iba-1 in hippocampus (Figure 6h)", "setting": "Iba-1; 72 h after i.v.", "result": 0.96}, {"measurement": "GFAP in hippocampus (Figure 6i)", "setting": "GFAP; 4 h after i.v.", "result": 219.00}, {"measurement": "GFAP in hippocampus (Figure 6i)", "setting": "GFAP; 24 h after i.v. (LPS 24 h)", "result": 209.59}, {"measurement": "GFAP in hippocampus (Figure 6i)", "setting": "GFAP; 72 h after i.v.", "result": 220.69}, {"measurement": "WBC", "setting": "[2]", "result": "4.32±0.53 (×109)L-1"}, {"measurement": "effect on blood count", "setting": "[2]", "result": "no effect on blood count"}, {"measurement": "transport across the hCMEC/D3 monolayer", "setting": "hCMEC/D3 cell monolayer", "result": "transport of a fraction across the monolayer"}, {"measurement": "plasma membrane integrity (extracellular LDH)", "setting": "hCMEC/D3 cells [3]", "result": "neither FAM-CGY NLCs nor FAM-CGY/siRNA nanoparticles perturbed plasma membrane integrity"}, {"measurement": "histology of liver, kidneys, heart, lungs, spleen", "setting": "[4]", "result": "no adverse morphological changes and inflammatory reactions"}, {"measurement": "association with brain parenchymal cells", "setting": "[5]", "result": "neurons and microglial cells, but not with astrocytes"}]}]}
